Assay results published in PubChem BioAssay (NCI).
Several values for one entry are separate records, joined by “and”; a condition that tells them apart may be missing. Identical values can stand only once.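 Interpolation was linear, between the two tested concentrations surrounding the appropriate level; five concentrations were tested over 48 hours in 96-well plates. The concentration for 50% growth inhibition is given as GI50. The concentration for full growth arrest is given as TGI.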

Assays:
Assay in all cases: NCI anticancer screen, dose series, 48 h
MALME-3M melanoma = system: MALME-3M melanoma
SF-268 CNS = system: SF-268 CNS
SK-MEL-2 melanoma = system: SK-MEL-2 melanoma
RXF 393 renal = system: RXF 393 renal
BT-549 breast = system: BT-549 breast
SW-620 colon = system: SW-620 colon
SNB-19 CNS = system: SNB-19 CNS
DU-145 prostate = system: DU-145 prostate
A549 NSCLC = system: A549 NSCLC
SF-295 CNS = system: SF-295 CNS

SMILES | GI50 (MALME-3M melanoma) | TGI (MALME-3M melanoma) | GI50 (SF-268 CNS) | TGI (SF-268 CNS) | GI50 (SK-MEL-2 melanoma) | TGI (SK-MEL-2 melanoma) | GI50 (RXF 393 renal) | TGI (RXF 393 renal) | GI50 (BT-549 breast) | TGI (BT-549 breast) | GI50 (SW-620 colon) | TGI (SW-620 colon) | GI50 (SNB-19 CNS) | TGI (SNB-19 CNS) | GI50 (DU-145 prostate) | TGI (DU-145 prostate) | GI50 (A549 NSCLC) | TGI (A549 NSCLC) | GI50 (SF-295 CNS) | TGI (SF-295 CNS)
Cc1cnc(/C=N\NC(N)=S)c2cccc(N)c12 | 3.53 µM | > 100 µM | 1.51 µM | > 100 µM | > 29.2 µM | > 100 µM | 2.47 µM | > 100 µM | 3.52 µM | > 100 µM | 3.78 µM | > 100 µM | 3.42 µM | > 100 µM | 1.68 µM | > 100 µM | 4.85 µM | > 100 µM | 2.36 µM | > 100 µM
CC(C)(C#N)c1cc(F)cc(C(=O)Nc2cc(Nc3ncccc3-c3ncnc4nc[nH]c34)ccc2F)c1 | 0.0236 µM | 0.074 µM | 3.78 µM | > 10 µM | 0.144 µM | 1.17 µM | 2.22 µM | > 10 µM | 3.63 µM | > 10 µM | 1.13 µM | > 10 µM | 4.44 µM | > 10 µM | 5.51 µM | > 10 µM | 5.49 µM | > 10 µM | 3.74 µM | > 10 µM
O=C1c2ccccc2C(=Cc2ccccc2)c2ccccc21 | 6.2 µM | 23.4 µM | 3.34 µM | 16.6 µM | 1.78 µM | 4.95 µM | 3.06 µM | 9.63 µM | 3.71 µM | 15.6 µM | 2.43 µM | 13.8 µM | 3.61 µM | 16.9 µM | 2.44 µM | 6.94 µM | 3.22 µM | 9.97 µM | 2.59 µM | 13.6 µM
COc1cc2nccc(Oc3ccc(NC(=O)C4(C(=O)Nc5ccc(F)cc5)CC4)cc3)c2cc1Oc1ccc(N)cn1 | 2.09 µM | 8.52 µM | 3.11 µM | > 100 µM | 2.5 µM | 6.52 µM | 1.72 µM | 4.72 µM | 3.8 µM | > 100 µM | 2.57 µM | > 100 µM | 4.49 µM | > 100 µM | 4.5 µM | > 100 µM | 2.38 µM | 9.05 µM | 0.254 µM | 4.28 µM
CC(=O)c1cc2c(cc1Nc1c3ccccc3nc3occ(Cl)c13)OCO2 | 0.0796 µM | 0.45 µM | 0.697 µM | > 100 µM |  | > 100 µM | 0.193 µM | 0.523 µM | 0.157 µM | > 100 µM | 0.0344 µM | > 100 µM | 0.601 µM | > 100 µM | 0.227 µM |  | 0.2 µM |  | 0.0402 µM | 0.188 µM
CC(=O)O[C@H](C[C@H](C(C)C)N(C)C(=O)[C@@H](NC(=O)[C@H]1CCCCN1C)C(C)C)c1nc(C(=O)N[C@@H](Cc2ccccc2)C[C@H](C)C(=O)O)c(C(C)C)s1 | < 0.00333 µM | > 33.3 µM | < 0.00333 µM | > 33.3 µM | < 0.00333 µM | 19.2 µM | < 0.00333 µM | > 33.3 µM | 0.00338 µM | 0.0147 µM | < 0.00333 µM | > 33.3 µM | < 0.00333 µM | > 33.3 µM | < 0.00333 µM | 0.0827 µM | 0.00495 µM | > 33.3 µM | < 0.00333 µM | 0.297 µM
O=S(=O)(O)c1ccc(-c2nnc(-c3ccccn3)nc2-c2ccc(S(=O)(=O)O)o2)o1 |  | > 100 µM |  | > 100 µM |  | > 100 µM |  | > 100 µM |  | > 100 µM |  | > 100 µM |  | > 100 µM |  | > 100 µM |  | > 100 µM |  | > 100 µM
COc1ccc2c(c1)C(=O)C(=O)c1cc(O)c(OC)c(OC)c1-2 | 1.22 µM | 1.53 µM and 2.46 µM | 1.86 µM | 1.96 µM and 3.26 µM | 1.95 µM | 1.62 µM and 3.42 µM | 1.56 µM | 1.65 µM and 3.63 µM | 1.66 µM | 1.44 µM and 3.02 µM | 2.8 µM | 3.18 µM and 9.14 µM | 1.85 µM | 2.38 µM and 3.28 µM | 1.74 µM | 1.75 µM and 3.12 µM | 1.96 µM | 12.1 µM and 3.89 µM | 1.77 µM | 1.65 µM and 3.15 µM
O=C(CF)N(O)c1ccc(/C=C/c2ccccc2)cc1 | 24.6 µM | > 100 µM | 2.78 µM | > 100 µM | 27.1 µM | > 100 µM | 3.13 µM | 25.1 µM | 4.37 µM | > 100 µM | 1.3 µM | > 100 µM | 8.65 µM | > 100 µM | 1.48 µM | 6.96 µM | 1.17 µM | > 100 µM | 1.74 µM | 11.4 µM
O=C(Nc1cccc(Oc2nnc(Cl)c3ccccc23)c1)Nc1ccc(Cl)c(C(F)(F)F)c1 | 0.968 µM | 4 µM | 0.793 µM | 5.5 µM | 0.698 µM | 3.24 µM | 1.17 µM | 3.87 µM | 0.674 µM | 3.07 µM | 1.92 µM | 4.9 µM | 1.26 µM | 4.9 µM | 1.27 µM | 4.08 µM | 1.1 µM | 8.3 µM | 0.657 µM | 3.7 µM
